Assay results: patent publication US11712466B2, “Vaccine composition” (TOHOKU UNIVERSITY, priority 2017, dated 2023)
Ends that are not written are not given here.

Columns and labels:
[1] = system: mouse melanoma cells (B16F1); test: Subcutaneous implant model, tumor growth inhibitory effect (B16F1); format: in vivo; settings: immunized C57BL/6J mice, cells implanted s.c. on day 29, measured 14 days after implantation
Protocol: (§1) After 2 weeks from the administration of each peptide vaccine and incomplete Freund's adjuvant in Example 1 (on day 29 after the initial peptide vaccine administration), mouse-derived tumor cells were implanted in an immunized mouse, whereby a subcutaneous implant model was prepared. Specifically, mouse lung cancer cells (Lewis lung cancer cells (LLC)) or mouse melanoma cells (B16F1) (all have C57BL/6J as a genetic background) cultured in a RPMI+10% FBS medium were collected by centrifugation, and a cell suspension (1.0×10^8 cells/mL) was prepared with a serum-free medium, and 0.1 mL (1.0×10^7 cells/animal) of the cell suspension was implanted in a right axillary subcutaneous region of a mouse using a 27G injection needle and a syringe, whereby a subcutaneous implant model of tumor cells was prepared.

[2] = system: Lewis lung cancer cells (LLC); test: Subcutaneous implant model, tumor growth inhibitory effect (LLC); format: in vivo, mouse; settings: immunized C57BL/6J mice, cells implanted s.c. on day 29, measured 14 days after implantation
Protocol: as §1

[3] = system: recombinant human VASH2 protein; test: Antibody titer in blood of immunized mice by ELISA against recombinant VASH2 protein; format: in vivo, mouse; settings: Example 1: C57BL/6J mice, KLH-antigen complex s.c., Freund's adjuvant, serum 2 weeks after booster (total 4 weeks)
Description: (§2) C57BL/6J male mice aged 8 weeks were purchased from Charles River Laboratories Japan, Inc. After the delivery, the mice were reared in an environment where the room temperature and the light and dark cycles were maintained, and were provided with feed and water ad libitum. As a candidate sequence leading to activation of helper T cells by MHC class II, two peptide sequences: MTGSAADTHR (SEQ ID NO: 4; hereinafter, a peptide composed of the amino acid sequence is referred to as “MTG peptide”) and RRRQASPPRR (SEQ ID NO: 5; hereinafter, a peptide composed of the amino acid sequence is referred to as “RRR peptide”), each of which is not common to VASH1 in the VASH2 sequence were selected (FIG. 1). With respect to these peptides, peptide vaccines using KLH as a carrier were constructed. Note that for the conjugation of each peptide with KLH, a glutaraldehyde method was used. When the amount of the peptide introduced into KLH was measured for each of the obtained peptide vaccines, the amount of MTG was 66 to 70 nmol/mg of the conjugate, and the amount of RRR was 62 to 76 nmol/mg of the conjugate. Subsequently, 5 μg of KLH (control) and 20 μg of each of the KLH-antigen complexes were prepared with physiological saline so that the total amount was 50 μL, respectively, whereby KLH-mixed solutions were obtained. To each of the KLH-mixed solutions (50 μL), an equal amount of complete Freund's adjuvant was added. The obtained mixture was subcutaneously administered to the mice, whereby initial immunization was carried out. After 2 weeks from the administration, booster immunization was carried out by subcutaneously administering a mixture of each of the KLH-mixed solutions (50 μL) and an equal amount of incomplete Freund's adjuvant to the mice. Further, after 2 weeks from the booster immunization (after a total of 4 weeks), an increase in the antibody titer in the blood of each of the immunized mice was verified by ELISA.
The measurement of the antibody titer by ELISA was carried out as follows. After 2 weeks from the booster immunization (after a total of 4 weeks), the blood was collected from the facial vein of each of the immunized mice, and the serum separated from the blood was subjected to ELISA. By using 50 mM carbonate buffer, peptide-conjugated BSA was prepared at 10 μg/mL, and further a recombinant VASH2 protein was prepared at 1 μg/mL, each of which was added at 50 μL/well, and the resultant was left to stand overnight at 4° C. After the solution in each well was removed, 5% skim milk was added at 150 μL/well. After the resultant was left to stand at room temperature for 2 hours, the solution was removed, and subsequently, a serum sample diluted by 20 to 62500 times with 5% skim milk was added at 50 μL/well, and the resultant was left to stand overnight at 4° C. Subsequently, washing was carried out with PBS (200 μL/well×6 times), and thereafter, a secondary antibody (HRP-conjugated anti-Mouse IgG) diluted by 1000 times with 5% skim milk was added at 50 μL/well. After the resultant was left to stand at room temperature for 3 hours, washing was carried out with PBS (200 μL/well×3 times). Thereafter, tetramethylbenzidine (TMB) was added at 50 μL/well, and the resultant was left to stand at room temperature under light shielding. After 30 minutes, the reaction was stopped by adding 0.5 N H2SO4 at 50 μL/well, and an absorbance (450 nm) was measured using a microplate reader.

[4] = system: antigen peptide (peptide-conjugated BSA); test: Antibody titer in blood of immunized mice by ELISA against antigen peptide; format: in vivo, mouse; settings: Example 1: C57BL/6J mice, KLH-antigen complex s.c., Freund's adjuvant, serum 2 weeks after booster (total 4 weeks)
Description: as §2
The measurement of the antibody titer by ELISA was carried out as follows. After 2 weeks from the booster immunization (after a total of 4 weeks), the blood was collected from the facial vein of each of the immunized mice, and the serum separated from the blood was subjected to ELISA. By using 50 mM carbonate buffer, peptide-conjugated BSA was prepared at 10 μg/mL, and further a recombinant VASH2 protein was prepared at 1 μg/mL, each of which was added at 50 μL/well, and the resultant was left to stand overnight at 4° C. After the solution in each well was removed, 5% skim milk was added at 150 μL/well. […] After 30 minutes, the reaction was stopped by adding 0.5 N H2SO4 at 50 μL/well, and an absorbance (450 nm) was measured using a microplate reader.

RRR peptide vaccine: RRR peptide RRRQASPPRR (SEQ ID NO: 5) conjugated with KLH as carrier by a glutaraldehyde method (also: conjugated with KLH by glutaraldehyde)
tumor size (tumorigenesis), B16F1 melanoma cells [1]: could not inhibit tumorigenesis
tumor size (tumorigenesis), Lewis lung cancer cells [2]: could not inhibit tumorigenesis
antibody titer against the recombinant human VASH2 protein [3]: a significant increase in the antibody titer was not confirmed
antibody titer against the antigen peptide [4]: significant concentration-dependent increase
